Test results taken from article PMC9959518, “Influence of the Drug Position on Bioactivity in Angiopep-2—Daunomycin Conjugates” (International Journal of Molecular Sciences, 2023).

Columns and labels:
[1] = tested on: U87 human glioblastoma cells; assay type: cell-based; conditions: MTT test; for IC50: 0.05–50 µM, treated 24 h (method: overnight), washed, further 48 h (method: 72 h) at 37 °C, two independent experiments with four parallel measurements
Procedure: The in vitro cytostatic effect of the synthesized peptide (1) and daunomycin-peptide conjugates (2–8) was investigated on U87 human glioblastoma cells. The cells were treated with the peptide and conjugates at different concentrations (0.05–50 μM) for 24 h, and after a washing step, the cells were incubated for another […] at 37 °C. The cytostatic effect of the compounds was determined using the MTT test.
U87 human glioblastoma cell line was cultured in DMEM supplemented with 10% FBS, 2 mM L-glutamine, penicillin–streptomycin antibiotic mixture (50 IU/mL and 50 μg/mL, respectively), 1 mM sodium pyruvate, and 1% non-essential amino acid mixture. The cell culture was maintained at 37 °C in a humidified atmosphere with 5% CO2. The U87 cell line was a generous gift of Dr. József Tóvári (Department of Experimental Pharmacology, National Institute of Oncology, Budapest, Hungary).
For determining the cytostatic effect of the conjugates, U87 cells were grown to confluency and then divided into 96-well tissue culture plates with an initial cell number of 5.0 × 10^3 cells/well. After 24 h incubation at 37 °C, the cells were treated with the compounds overnight in the concentration range of 0.05–50 μM in 200 μL final volume containing 1.0 v/v% DMSO, whereas control cells were treated only with serum-free medium or with 1.0 v/v% DMSO at the same conditions. After the incubation, cells were washed twice with serum-free medium, then the cells were cultured for an additional 72 h in 10% serum-containing medium at 37 °C. Following that, MTT solution (at c = 0.37 mg/mL final concentration) was added to each well. The respiratory chain [32] and other electron transport systems reduced MTT and thereby formed non-water-soluble violet formazan crystals within the cells. The amount of these crystals can be determined by spectrophotometry and serves as an estimate for the number of mitochondria in addition to the number of living cells in the well [35]. After 3 h of incubation with MTT, the cells were centrifuged for 5 min at 2000 rpm and the supernatant was removed. The obtained formazan crystals were dissolved in DMSO (100 µL), and the optical density (OD) of the samples was measured at λ = 540 nm and 620 nm, respectively, using ELISA Reader (iEMS Reader, Labsystems, Finland). The OD620 values were subtracted from the OD540 values. The percent of cytostasis was calculated with the following equation:(1) Cytostatic effect (%)=1−ODtreated/ODcontrol×100 where the ODtreated and ODcontrol values correspond to the optical densities of the treated and the control wells, respectively. In each case, two independent experiments were carried out with four parallel measurements. Cytostasis was plotted as a function of concentration, and the half-maximal inhibitory concentration was calculated based on a sigmoid curve fitted on the data points using Microcal™ Origin 2018 software. IC50 represents the concentration of a compound that is required for 50% inhibition, expressed in micromolar units.

[2] = Degradation in rat liver lysosomal homogenate followed by HPLC-MS; assay type: in vitro ADME
Procedure: The conjugates were treated with lysosomal homogenate for 5 min, 1 h, 6 h, 24 h, and 72 h, and the degradation was followed by HPLC-MS. Control studies investigating conjugates in buffer (without lysosomal homogenate) were also performed, and for these, all conjugates were stable. […] At 6 h, it was the main drug-containing metabolite, and at 72 h, only this Dau-containing fragment could be detected. This time-dependent pattern was also observed in the case of conjugate 2, where Dau was attached to the side chain of Lys in position 15, and the formed smallest metabolite was H-Lys(Dau=Aoa)-OH. […] It is likely that, in this case, a large steric hindrance occurred, and the enzymes were not able to access the peptide bonds around ^10Lys. This observation might explain the discrepancy between the efficient cellular uptake and the lower anticancer activity of this conjugate.
A stock solution with a concentration of 2.5 μg/μL was prepared from the conjugates in distilled water, and this was diluted 100× with 0.2 M sodium acetate buffer (pH 5.03). The rat liver lysosomal homogenate (16.6 μg/μL) was diluted 20× with the same buffer, and then the two solutions were mixed in a 1:1 (protein:peptide, m/m) ratio. In each case, control measurements were also performed, in which buffer was added to the conjugates instead of the lysosomal homogenate. The solutions were stirred at 600 rpm at 37 °C in a thermostat (ThermoMixer, Eppendorf AG, Hamburg, Germany), and after 5 min, 1 h, 6 h, 24 h, and 72 h, 50 μL samples were taken. Each reaction was quenched with 5 μL formic acid and the samples were stored frozen until analysis.
The HPLC-MS analysis of the samples was performed with a Dionex 3000 HPLC-Q Exactive Focus hybrid quadrupole-orbitrap mass spectrometer (Thermo Fisher Scientific, Bremen, Germany). For separation, a Supelco Ascentis C18 column (3 μm, 100 Å, 150 × 2.1 mm; Merck, Darmstadt, Germany) and gradient elution (0 min 2% B, 1 min 2% B, 17 min 90% B; A eluent: 0.1% formic acid/distilled water, eluent B: 0.1% formic acid/acetonitrile + distilled water (80:20, v/v%), flow rate 0.2 mL/min, 40 °C) was used, and high-resolution mass spectra were recorded in the range of 200–1800 m/z. The data were analyzed using the Xcalibur program (Thermo Fisher Scientific).

Row | SMILES | IC50 [1] [µM] | further results
1 | C[C@@H](O)[C@H](N)C(=O)N[C@@H](Cc1ccccc1)C(=O)N[C@@H](Cc1ccccc1)C(=O)N[C@@H](Cc1ccc(O)cc1)C(=O)NCC(=O)NCC(=O)N[C@@H](CO)C(=O)N[C@@H](CCCNC(=N)N)C(=O)NCC(=O)N[C@@H](CCCCN)C(=O)N[C@@H](CCCNC(=N)N)C(=O)N[C@@H](CC(N)=O)C(=O)N[C@@H](CC(N)=O)C(=O)N[C@@H](Cc1ccccc1)C(=O)N[C@@H](CCCCN)C(=O)N[C@H](C(=O)N[C@@H](CCC(=O)O)C(=O)N[C@@H](CCC(=O)O)C(=O)N[C@@H](Cc1ccc(O)cc1)C(=O)O)[C@@H](C)O [compound 1, H-TFFYGGSRGKRNNFKTEEY-OH, reference compound] | > 50 | in vitro cytostatic effect (in words) ([1]; up to 50 µM): did not show any effect
2 | COc1cccc2c1C(=O)c1c(O)c3c(c(O)c1C2=O)C[C@@](O)(C(C)=NOCC(=O)NCCCC[C@H](NC(=O)[C@H](Cc1ccccc1)NC(=O)[C@H](CC(N)=O)NC(=O)[C@H](CC(N)=O)NC(=O)[C@H](CCCNC(=N)N)NC(=O)[C@H](CCCCN)NC(=O)CNC(=O)[C@H](CCCNC(=N)N)NC(=O)[C@H](CO)NC(=O)CNC(=O)CNC(=O)[C@H](Cc1ccc(O)cc1)NC(=O)[C@H](Cc1ccccc1)NC(=O)[C@H](Cc1ccccc1)NC(=O)[C@@H](N)[C@@H](C)O)C(=O)N[C@H](C(=O)N[C@@H](CCC(=O)O)C(=O)N[C@@H](CCC(=O)O)C(=O)N[C@@H](Cc1ccc(O)cc1)C(=O)O)[C@@H](C)O)C[C@@H]3O[C@H]1C[C@H](N)[C@H](O)[C@H](C)O1 [compound 2, H-TFFYGGSRGKRNNFK(Dau=Aoa)TEEY-OH] | 30.2 ± 6.4 | –
3 | COc1cccc2c1C(=O)c1c(O)c3c(c(O)c1C2=O)C[C@@](O)(C(C)=NOCC(=O)N[C@H](C(=O)N[C@@H](Cc1ccccc1)C(=O)N[C@@H](Cc1ccccc1)C(=O)N[C@@H](Cc1ccc(O)cc1)C(=O)NCC(=O)NCC(=O)N[C@@H](CO)C(=O)N[C@@H](CCCNC(=N)N)C(=O)NCC(=O)N[C@@H](CCCCN)C(=O)N[C@@H](CCCNC(=N)N)C(=O)N[C@@H](CC(N)=O)C(=O)N[C@@H](CC(N)=O)C(=O)N[C@@H](Cc1ccccc1)C(=O)N[C@@H](CCCCN)C(=O)N[C@H](C(=O)N[C@@H](CCC(=O)O)C(=O)N[C@@H](CCC(=O)O)C(=O)N[C@@H](Cc1ccc(O)cc1)C(=O)O)[C@@H](C)O)[C@@H](C)O)C[C@@H]3O[C@H]1C[C@H](N)[C@H](O)[C@H](C)O1 [compound 3, Dau=Aoa-TFFYGGSRGKRNNFKTEEY-OH] | 10.9 ± 2.8 | time of appearance of the Dau=Aoa-Thr-OH fragment ([2]; 1:1 protein:peptide m/m, 0.2 M sodium acetate pH 5.03, 37 °C): ≤ 1 h
4 | COc1cccc2c1C(=O)c1c(O)c3c(c(O)c1C2=O)C[C@@](O)(C(C)=NOCC(=O)NCCCC[C@H](NC(=O)CNC(=O)[C@H](CCCNC(=N)N)NC(=O)[C@H](CO)NC(=O)CNC(=O)CNC(=O)[C@H](Cc1ccc(O)cc1)NC(=O)[C@H](Cc1ccccc1)NC(=O)[C@H](Cc1ccccc1)NC(=O)[C@@H](N)[C@@H](C)O)C(=O)N[C@@H](CCCNC(=N)N)C(=O)N[C@@H](CC(N)=O)C(=O)N[C@@H](CC(N)=O)C(=O)N[C@@H](Cc1ccccc1)C(=O)N[C@@H](CCCCN)C(=O)N[C@H](C(=O)N[C@@H](CCC(=O)O)C(=O)N[C@@H](CCC(=O)O)C(=O)N[C@@H](Cc1ccc(O)cc1)C(=O)O)[C@@H](C)O)C[C@@H]3O[C@H]1C[C@H](N)[C@H](O)[C@H](C)O1 [compound 4, H-TFFYGGSRGK(Dau=Aoa)RNNFKTEEY-OH] | 24 ± 5.9 | smallest metabolite H-Lys(Dau=Aoa)-OH at 1 h ([2]; 1:1 protein:peptide m/m, 0.2 M sodium acetate pH 5.03, 37 °C, 1 h): not detectable; release of the smallest metabolite H-Lys(Dau=Aoa)-OH (in words) ([2]; pH 5.03, 37 °C, up to 72 h): not efficiently released
5 | COc1cccc2c1C(=O)c1c(O)c3c(c(O)c1C2=O)C[C@@](O)(C(C)=NOCC(=O)NCCCC[C@H](NC(=O)[C@H](Cc1ccccc1)NC(=O)[C@H](CC(N)=O)NC(=O)[C@H](CC(N)=O)NC(=O)[C@H](CCCNC(=N)N)NC(=O)[C@H](CCCCN)NC(=O)CNC(=O)[C@H](CCCNC(=N)N)NC(=O)[C@H](CO)NC(=O)CNC(=O)CNC(=O)[C@H](Cc1ccc(O)cc1)NC(=O)[C@H](Cc1ccccc1)NC(=O)[C@H](Cc1ccccc1)NC(=O)[C@@H](NC(=O)CON=C(C)[C@]1(O)Cc2c(O)c4c(c(O)c2[C@@H](O[C@H]2C[C@H](N)[C@H](O)[C@H](C)O2)C1)C(=O)c1c(OC)cccc1C4=O)[C@@H](C)O)C(=O)N[C@H](C(=O)N[C@@H](CCC(=O)O)C(=O)N[C@@H](CCC(=O)O)C(=O)N[C@@H](Cc1ccc(O)cc1)C(=O)O)[C@@H](C)O)C[C@@H]3O[C@H]1C[C@H](N)[C@H](O)[C@H](C)O1 [compound 5, Dau=Aoa-TFFYGGSRGKRNNFK(Dau=Aoa)TEEY-OH] | 32.3 ± 8.1 | –
6 | COc1cccc2c1C(=O)c1c(O)c3c(c(O)c1C2=O)C[C@@](O)(C(C)=NOCC(=O)NCCCC[C@H](NC(=O)CNC(=O)[C@H](CCCNC(=N)N)NC(=O)[C@H](CO)NC(=O)CNC(=O)CNC(=O)[C@H](Cc1ccc(O)cc1)NC(=O)[C@H](Cc1ccccc1)NC(=O)[C@H](Cc1ccccc1)NC(=O)[C@@H](N)[C@@H](C)O)C(=O)N[C@@H](CCCNC(=N)N)C(=O)N[C@@H](CC(N)=O)C(=O)N[C@@H](CC(N)=O)C(=O)N[C@@H](Cc1ccccc1)C(=O)N[C@@H](CCCCNC(=O)CON=C(C)[C@]1(O)Cc2c(O)c4c(c(O)c2[C@@H](O[C@H]2C[C@H](N)[C@H](O)[C@H](C)O2)C1)C(=O)c1c(OC)cccc1C4=O)C(=O)N[C@H](C(=O)N[C@@H](CCC(=O)O)C(=O)N[C@@H](CCC(=O)O)C(=O)N[C@@H](Cc1ccc(O)cc1)C(=O)O)[C@@H](C)O)C[C@@H]3O[C@H]1C[C@H](N)[C@H](O)[C@H](C)O1 [compound 6, H-TFFYGGSRGK(Dau=Aoa)RNNFK(Dau=Aoa)TEEY-OH] | 21.6 ± 5.4 | –
7 | COc1cccc2c1C(=O)c1c(O)c3c(c(O)c1C2=O)C[C@@](O)(C(C)=NOCC(=O)NCCCC[C@H](NC(=O)CNC(=O)[C@H](CCCNC(=N)N)NC(=O)[C@H](CO)NC(=O)CNC(=O)CNC(=O)[C@H](Cc1ccc(O)cc1)NC(=O)[C@H](Cc1ccccc1)NC(=O)[C@H](Cc1ccccc1)NC(=O)[C@@H](NC(=O)CON=C(C)[C@]1(O)Cc2c(O)c4c(c(O)c2[C@@H](O[C@H]2C[C@H](N)[C@H](O)[C@H](C)O2)C1)C(=O)c1c(OC)cccc1C4=O)[C@@H](C)O)C(=O)N[C@@H](CCCNC(=N)N)C(=O)N[C@@H](CC(N)=O)C(=O)N[C@@H](CC(N)=O)C(=O)N[C@@H](Cc1ccccc1)C(=O)N[C@@H](CCCCNC(=O)CON=C(C)[C@]1(O)Cc2c(O)c4c(c(O)c2[C@@H](O[C@H]2C[C@H](N)[C@H](O)[C@H](C)O2)C1)C(=O)c1c(OC)cccc1C4=O)C(=O)N[C@H](C(=O)N[C@@H](CCC(=O)O)C(=O)N[C@@H](CCC(=O)O)C(=O)N[C@@H](Cc1ccc(O)cc1)C(=O)O)[C@@H](C)O)C[C@@H]3O[C@H]1C[C@H](N)[C@H](O)[C@H](C)O1 [compound 8, Dau=Aoa-TFFYGGSRGK(Dau=Aoa)RNNFK(Dau=Aoa)TEEY-OH] | 23.6 ± 6.3 | –
